Values after ≈ are worked out from the molar mass of the structure shown. Active and inactive are the calls of the source. The calls are words filed in the database; no cut-off is given here.
How the values were obtained:
[1] = molecular target: T1, Polyunsaturated fatty acid lipoxygenase ALOX15 (Homo sapiens, UniProt P16050); conditions: sf9
T1 sequence (P16050 whole entry): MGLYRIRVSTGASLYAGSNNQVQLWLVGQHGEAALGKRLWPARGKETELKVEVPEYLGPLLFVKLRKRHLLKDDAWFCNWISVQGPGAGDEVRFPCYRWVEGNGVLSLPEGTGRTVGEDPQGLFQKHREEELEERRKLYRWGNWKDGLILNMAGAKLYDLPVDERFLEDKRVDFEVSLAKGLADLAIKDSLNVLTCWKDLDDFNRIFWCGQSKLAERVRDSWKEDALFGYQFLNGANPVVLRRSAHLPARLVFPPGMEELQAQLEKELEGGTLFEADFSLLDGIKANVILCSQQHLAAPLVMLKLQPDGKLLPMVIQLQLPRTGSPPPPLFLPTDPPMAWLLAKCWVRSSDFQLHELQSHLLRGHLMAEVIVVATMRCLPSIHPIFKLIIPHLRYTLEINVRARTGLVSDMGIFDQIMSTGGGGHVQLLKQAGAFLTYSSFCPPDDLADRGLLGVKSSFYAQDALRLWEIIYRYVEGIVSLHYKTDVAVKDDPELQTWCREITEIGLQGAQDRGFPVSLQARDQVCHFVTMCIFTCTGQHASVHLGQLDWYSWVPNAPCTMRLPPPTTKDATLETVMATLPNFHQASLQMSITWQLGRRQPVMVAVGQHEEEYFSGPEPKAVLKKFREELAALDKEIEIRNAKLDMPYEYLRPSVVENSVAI
Description: Inhibition of human 15-LOX-1 expressed in Sf9 cells assessed as reduction in conversion of arachidonic acid to 15-HETE pre-incubated 5 min before arachidonic acid substrate addition by HPLC-UV spectroscopy

[2] = molecular target: T1, Polyunsaturated fatty acid lipoxygenase ALOX15; conditions: l1236
Description: (§2) Inhibition of 15-LOX-1 in human L1236 cells assessed as reduction in conversion of arachidonic acid to 15-HETE pre-incubated 5 min before arachidonic acid substrate addition by HPLC-UV spectroscopy

[3] = molecular target: Polyunsaturated fatty acid lipoxygenase ALOX12 (Homo sapiens) (UniProt P18054); test: Inhibition of human platelet 12-LOX assessed as reduction in conversion of arachidonic acid to […] at 10 uM pre-incubated 5 min before arachidonic acid substrate addition by HPLC-UV spectroscopy
[4] = molecular target: CYP2D6 (Homo sapiens, UniProt P10635); test: Inhibition of human CYP2D6 at 10 uM; format: ADME
[5] = tested on: Caco-2; test: Permeability in human Caco2 cells; format: ADME, cell-based
[6] = molecular target: T2, Cytochrome P450 3A4 (Homo sapiens, UniProt P08684); test: Inhibition of human CYP3A4; format: ADME
[7] = tested on: Escherichia coli; test: Genotoxicity in Escherichia coli by SOS/umu test; format: toxicity, organism-based
[8] = molecular target: CYP2C9 (Homo sapiens, UniProt P11712); test: Inhibition of human CYP2C9 at 10 uM; format: ADME
[9] = molecular target: CYP2C19 (Homo sapiens, UniProt P33261); test: Inhibition of human CYP2C19 at 10 uM; format: ADME
[10] = Half life in human microsomes; format: ADME, Microsome
[11] = Intrinsic clearance in human microsomes; format: ADME, Microsome
[12] = molecular target: T3, Prostaglandin G/H synthase 2 (Homo sapiens) (UniProt P35354); test: Inhibition of human recombinant COX2 assessed as reduction in PGH2-derived PGF2alpha production at 10 uM by enzyme immunoassay
T3 sequence (whole entry): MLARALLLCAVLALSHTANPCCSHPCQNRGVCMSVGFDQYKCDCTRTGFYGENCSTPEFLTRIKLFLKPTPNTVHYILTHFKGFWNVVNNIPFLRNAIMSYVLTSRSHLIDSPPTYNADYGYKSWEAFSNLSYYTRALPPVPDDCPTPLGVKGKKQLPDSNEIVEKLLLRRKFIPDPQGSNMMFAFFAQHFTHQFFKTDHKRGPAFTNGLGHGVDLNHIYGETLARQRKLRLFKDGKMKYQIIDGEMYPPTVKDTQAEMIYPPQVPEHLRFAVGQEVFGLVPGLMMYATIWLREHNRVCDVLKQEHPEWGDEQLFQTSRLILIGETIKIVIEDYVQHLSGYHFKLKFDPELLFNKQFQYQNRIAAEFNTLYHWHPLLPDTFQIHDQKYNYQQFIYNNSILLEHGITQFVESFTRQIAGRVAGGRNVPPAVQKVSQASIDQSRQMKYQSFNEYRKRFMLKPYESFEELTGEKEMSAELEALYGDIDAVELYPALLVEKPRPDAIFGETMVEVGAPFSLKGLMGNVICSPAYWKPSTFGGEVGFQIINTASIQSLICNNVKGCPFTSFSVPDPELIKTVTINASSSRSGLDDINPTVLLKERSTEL

[13] = molecular target: Voltage-gated inwardly rectifying potassium channel KCNH2 (Homo sapiens, UniProt Q12809); test: Inhibition of human ERG
[14] = molecular target: T2, Cytochrome P450 3A4; test: Inhibition of human CYP3A4 at 10 uM; format: ADME
[15] = Aqueous solubility in pH 7.4 buffer; format: physicochemical
[16] = molecular target: CYP1A2 (Homo sapiens, UniProt P05177); test: Inhibition of human CYP1A2 at 10 uM; format: ADME
[17] = molecular target: T4, Prostaglandin G/H synthase 1 (Ovis aries) (UniProt P05979); test: Inhibition of ovine COX1 assessed as reduction in PGH2-derived PGF2alpha production at 10 uM by enzyme immunoassay
T4 sequence (whole entry): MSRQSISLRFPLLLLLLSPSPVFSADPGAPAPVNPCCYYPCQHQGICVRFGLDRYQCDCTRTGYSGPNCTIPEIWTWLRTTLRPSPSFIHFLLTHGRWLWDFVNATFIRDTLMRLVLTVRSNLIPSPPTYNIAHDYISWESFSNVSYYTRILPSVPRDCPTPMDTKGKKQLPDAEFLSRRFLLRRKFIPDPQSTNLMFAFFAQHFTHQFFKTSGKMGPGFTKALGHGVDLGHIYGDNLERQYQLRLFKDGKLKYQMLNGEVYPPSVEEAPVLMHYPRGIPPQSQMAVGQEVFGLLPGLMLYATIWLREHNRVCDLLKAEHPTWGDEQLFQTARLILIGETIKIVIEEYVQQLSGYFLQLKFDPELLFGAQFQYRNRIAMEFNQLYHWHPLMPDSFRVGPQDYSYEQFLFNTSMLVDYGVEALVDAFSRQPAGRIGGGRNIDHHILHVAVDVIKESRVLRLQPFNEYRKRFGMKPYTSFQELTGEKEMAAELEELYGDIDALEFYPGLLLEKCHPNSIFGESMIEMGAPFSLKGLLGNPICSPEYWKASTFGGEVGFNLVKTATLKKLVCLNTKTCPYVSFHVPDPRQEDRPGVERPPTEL

[18] = Protein binding in plasma (unknown origin); format: ADME, cell-free; conditions: read-out: PPB (converted)
[19] = molecular target: Polyunsaturated fatty acid 5-lipoxygenase (Homo sapiens) (UniProt P09917); test: Inhibition of 5-LOX in calcium ionophore and arachidonic acid-stimulated purified human granulocytes assessed as reduction in LTB4 formation at 10 uM by HPLC-UV spectroscopy
[20] = molecular target: Cytochrome P450 1A2 (Homo sapiens, UniProt P05177); test: Inhibition of human CYP1A2; format: ADME
[21] = molecular target: T5, Cytochrome P450 2C8 (Homo sapiens, UniProt P10632); test: Inhibition of human CYP2C8; format: ADME
[22] = molecular target: CYP2E1 (Homo sapiens, UniProt P05181); test: Inhibition of human CYP2E1 at 10 uM; format: ADME
[23] = molecular target: Polyunsaturated fatty acid lipoxygenase ALOX15B (Homo sapiens, UniProt O15296); test: Inhibition of human 15-LOX-2 expressed in Sf9 cells assessed as reduction in conversion of arachidonic acid to 15-HETE pre-incubated 5 min before arachidonic acid substrate addition by HPLC-UV spectroscopy
[24] = Aqueous solubility in pH 2.0 buffer; format: physicochemical
[25] = molecular target: CYP2B6 (Homo sapiens, UniProt P20813); test: Inhibition of human CYP2B6 at 10 uM; format: ADME
[26] = molecular target: T5, Cytochrome P450 2C8; test: Inhibition of human CYP2C8 at 10 uM; format: ADME
[27] = molecular target: Cytochrome P450 2D6 (Homo sapiens, UniProt P10635); test: Inhibition of human CYP2D6; format: ADME
[28] = molecular target: Cytochrome P450 2C19 (Homo sapiens, UniProt P33261); test: Inhibition of human CYP2C19; format: ADME; conditions: read-out: IC50
[29] = molecular target: Arachidonate 12-lipoxygenase (Rattus norvegicus, UniProt Q02759); test: (§1) Inhibition of rat 15-LOX-1 expressed in Sf9 cells assessed as reduction in conversion of arachidonic acid to 15-HETE pre-incubated 5 min before arachidonic acid substrate addition by HPLC-UV spectroscopy
[30] = molecular target: Arachidonate 12-lipoxygenase (Rattus norvegicus) (UniProt Q02759); test: as §1
[31] = Inhibition of dog 15-LOX-1 expressed in Sf9 cells assessed as reduction in conversion of arachidonic acid to 15-HETE pre-incubated 5 min before arachidonic acid substrate addition by HPLC-UV spectroscopy; design: species or system Canis lupus familiaris
[32] = molecular target: Cytochrome P450 2C9 (Homo sapiens, UniProt P11712); test: Inhibition of human CYP2C9; format: ADME; conditions: read-out: IC50
[33] = molecular target: Arachidonate 12-lipoxygenase (Sus scrofa, UniProt P16469); test: Inhibition of pig 15-LOX-1 expressed in Sf9 cells assessed as reduction in conversion of arachidonic acid to 15-HETE pre-incubated 5 min before arachidonic acid substrate addition by HPLC-UV spectroscopy
[34] = Aqueous solubility in pH 10 buffer; format: physicochemical
[35] = molecular target: T1, Polyunsaturated fatty acid lipoxygenase ALOX15
Description: as §2

T2 sequence (P08684 whole entry): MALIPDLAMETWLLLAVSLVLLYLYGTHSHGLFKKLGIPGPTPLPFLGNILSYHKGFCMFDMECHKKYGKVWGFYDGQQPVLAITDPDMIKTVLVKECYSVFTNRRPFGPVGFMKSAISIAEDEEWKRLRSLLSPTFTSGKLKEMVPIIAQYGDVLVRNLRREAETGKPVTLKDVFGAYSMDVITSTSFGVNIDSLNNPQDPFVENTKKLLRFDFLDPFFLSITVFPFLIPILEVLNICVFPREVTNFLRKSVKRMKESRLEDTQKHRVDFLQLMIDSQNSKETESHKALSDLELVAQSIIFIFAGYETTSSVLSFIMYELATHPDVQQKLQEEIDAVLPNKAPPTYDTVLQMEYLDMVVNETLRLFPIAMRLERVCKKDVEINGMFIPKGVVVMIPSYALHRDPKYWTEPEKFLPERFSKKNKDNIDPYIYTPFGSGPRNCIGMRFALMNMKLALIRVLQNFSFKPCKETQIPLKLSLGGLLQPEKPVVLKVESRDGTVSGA
Chain of Polyunsaturated fatty acid 5-lipoxygenase (Homo sapiens) (P09917 whole entry): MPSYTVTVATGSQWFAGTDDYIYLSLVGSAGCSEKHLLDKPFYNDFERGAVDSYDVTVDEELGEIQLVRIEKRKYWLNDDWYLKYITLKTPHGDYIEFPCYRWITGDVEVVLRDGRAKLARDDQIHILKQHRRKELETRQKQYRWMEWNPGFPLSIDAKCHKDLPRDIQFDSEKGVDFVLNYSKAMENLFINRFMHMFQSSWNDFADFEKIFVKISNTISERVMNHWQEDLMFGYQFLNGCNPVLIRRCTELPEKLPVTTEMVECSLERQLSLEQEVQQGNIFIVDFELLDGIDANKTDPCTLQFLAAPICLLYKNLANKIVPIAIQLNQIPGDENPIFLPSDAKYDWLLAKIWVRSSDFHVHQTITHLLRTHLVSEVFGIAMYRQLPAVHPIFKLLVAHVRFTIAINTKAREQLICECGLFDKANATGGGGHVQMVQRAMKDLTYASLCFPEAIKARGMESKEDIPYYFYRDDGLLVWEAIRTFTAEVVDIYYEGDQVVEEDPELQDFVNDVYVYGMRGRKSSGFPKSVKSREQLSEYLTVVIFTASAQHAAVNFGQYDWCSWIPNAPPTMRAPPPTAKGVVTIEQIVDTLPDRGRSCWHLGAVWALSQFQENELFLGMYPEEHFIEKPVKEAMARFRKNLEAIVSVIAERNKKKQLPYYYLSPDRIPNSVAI
Chain of Voltage-gated inwardly rectifying potassium channel KCNH2 (Q12809 whole entry): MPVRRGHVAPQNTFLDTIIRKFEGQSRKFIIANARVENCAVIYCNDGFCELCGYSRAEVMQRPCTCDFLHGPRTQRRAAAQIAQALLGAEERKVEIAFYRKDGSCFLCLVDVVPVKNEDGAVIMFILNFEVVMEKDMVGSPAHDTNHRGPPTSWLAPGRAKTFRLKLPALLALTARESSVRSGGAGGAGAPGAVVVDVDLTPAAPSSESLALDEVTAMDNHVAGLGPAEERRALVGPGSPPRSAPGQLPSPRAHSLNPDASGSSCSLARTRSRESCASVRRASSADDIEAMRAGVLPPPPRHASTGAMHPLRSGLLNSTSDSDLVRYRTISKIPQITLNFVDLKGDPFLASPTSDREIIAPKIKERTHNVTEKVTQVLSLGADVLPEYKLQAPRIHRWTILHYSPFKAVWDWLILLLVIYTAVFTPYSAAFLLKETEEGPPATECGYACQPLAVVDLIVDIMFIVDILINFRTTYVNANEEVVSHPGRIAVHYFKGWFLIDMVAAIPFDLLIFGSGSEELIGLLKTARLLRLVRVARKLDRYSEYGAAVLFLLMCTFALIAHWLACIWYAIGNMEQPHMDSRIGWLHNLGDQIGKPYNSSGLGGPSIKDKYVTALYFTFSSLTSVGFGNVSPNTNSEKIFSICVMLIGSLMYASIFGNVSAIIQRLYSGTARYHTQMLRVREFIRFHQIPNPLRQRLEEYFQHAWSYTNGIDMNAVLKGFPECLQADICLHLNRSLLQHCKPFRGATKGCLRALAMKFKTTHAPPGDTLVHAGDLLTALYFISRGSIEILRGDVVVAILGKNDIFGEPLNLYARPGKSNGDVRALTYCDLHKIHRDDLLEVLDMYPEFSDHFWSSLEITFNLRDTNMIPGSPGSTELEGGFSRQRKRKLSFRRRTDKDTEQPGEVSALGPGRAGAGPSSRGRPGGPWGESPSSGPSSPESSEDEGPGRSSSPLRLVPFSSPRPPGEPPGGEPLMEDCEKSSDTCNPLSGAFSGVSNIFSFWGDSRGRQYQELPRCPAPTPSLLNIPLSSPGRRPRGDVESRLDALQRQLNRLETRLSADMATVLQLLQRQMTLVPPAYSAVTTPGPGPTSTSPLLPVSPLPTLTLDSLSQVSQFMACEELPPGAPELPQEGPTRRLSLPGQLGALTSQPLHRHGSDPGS
Chain of Polyunsaturated fatty acid lipoxygenase ALOX12 (Homo sapiens) (P18054 whole entry): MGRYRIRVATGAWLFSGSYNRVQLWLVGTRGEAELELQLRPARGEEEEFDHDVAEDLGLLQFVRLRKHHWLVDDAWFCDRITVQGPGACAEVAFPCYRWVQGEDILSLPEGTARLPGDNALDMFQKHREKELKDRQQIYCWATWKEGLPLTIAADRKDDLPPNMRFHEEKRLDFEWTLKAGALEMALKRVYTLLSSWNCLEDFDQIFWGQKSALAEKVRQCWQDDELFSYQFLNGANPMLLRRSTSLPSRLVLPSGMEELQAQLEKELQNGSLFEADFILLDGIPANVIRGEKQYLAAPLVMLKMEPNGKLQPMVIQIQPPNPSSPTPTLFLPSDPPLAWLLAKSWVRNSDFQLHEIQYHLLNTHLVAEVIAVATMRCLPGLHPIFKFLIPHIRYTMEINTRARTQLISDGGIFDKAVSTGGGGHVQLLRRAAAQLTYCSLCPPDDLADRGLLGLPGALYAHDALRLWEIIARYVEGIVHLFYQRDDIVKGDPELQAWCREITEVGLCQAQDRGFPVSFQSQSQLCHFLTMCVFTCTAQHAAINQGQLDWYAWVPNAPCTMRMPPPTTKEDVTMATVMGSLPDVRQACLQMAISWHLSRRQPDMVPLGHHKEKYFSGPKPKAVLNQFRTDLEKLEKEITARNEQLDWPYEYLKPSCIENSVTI
T5 sequence (P10632 whole entry): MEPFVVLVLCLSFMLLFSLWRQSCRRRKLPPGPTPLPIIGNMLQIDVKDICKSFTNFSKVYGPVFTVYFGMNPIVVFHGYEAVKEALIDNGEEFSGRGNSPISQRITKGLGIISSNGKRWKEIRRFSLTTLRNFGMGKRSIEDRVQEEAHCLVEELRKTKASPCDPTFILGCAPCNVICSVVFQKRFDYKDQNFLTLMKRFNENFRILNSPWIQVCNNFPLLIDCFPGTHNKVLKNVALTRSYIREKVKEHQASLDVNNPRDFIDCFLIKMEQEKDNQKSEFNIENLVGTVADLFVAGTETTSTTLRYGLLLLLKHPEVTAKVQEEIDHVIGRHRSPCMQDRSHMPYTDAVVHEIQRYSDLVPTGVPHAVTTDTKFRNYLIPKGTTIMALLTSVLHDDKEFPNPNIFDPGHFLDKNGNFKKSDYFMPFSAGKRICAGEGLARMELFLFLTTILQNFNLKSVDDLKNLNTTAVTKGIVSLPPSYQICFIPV
Chain of Cytochrome P450 2C19 (P33261 whole entry): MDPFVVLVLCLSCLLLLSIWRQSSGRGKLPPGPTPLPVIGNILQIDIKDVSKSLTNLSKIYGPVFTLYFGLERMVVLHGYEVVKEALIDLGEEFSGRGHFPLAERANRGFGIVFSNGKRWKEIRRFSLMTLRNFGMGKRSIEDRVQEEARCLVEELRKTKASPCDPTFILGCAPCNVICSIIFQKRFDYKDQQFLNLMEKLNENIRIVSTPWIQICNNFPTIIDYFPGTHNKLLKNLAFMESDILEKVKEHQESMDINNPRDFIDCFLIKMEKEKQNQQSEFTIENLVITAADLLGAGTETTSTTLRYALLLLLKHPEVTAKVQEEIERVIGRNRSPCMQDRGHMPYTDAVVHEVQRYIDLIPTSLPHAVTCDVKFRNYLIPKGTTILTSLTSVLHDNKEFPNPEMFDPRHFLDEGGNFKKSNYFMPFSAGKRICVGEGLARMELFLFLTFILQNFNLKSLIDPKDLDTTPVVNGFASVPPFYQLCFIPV
Chain of CYP2C19 (P33261 whole entry): as above
Chain of CYP2B6 (P20813 whole entry): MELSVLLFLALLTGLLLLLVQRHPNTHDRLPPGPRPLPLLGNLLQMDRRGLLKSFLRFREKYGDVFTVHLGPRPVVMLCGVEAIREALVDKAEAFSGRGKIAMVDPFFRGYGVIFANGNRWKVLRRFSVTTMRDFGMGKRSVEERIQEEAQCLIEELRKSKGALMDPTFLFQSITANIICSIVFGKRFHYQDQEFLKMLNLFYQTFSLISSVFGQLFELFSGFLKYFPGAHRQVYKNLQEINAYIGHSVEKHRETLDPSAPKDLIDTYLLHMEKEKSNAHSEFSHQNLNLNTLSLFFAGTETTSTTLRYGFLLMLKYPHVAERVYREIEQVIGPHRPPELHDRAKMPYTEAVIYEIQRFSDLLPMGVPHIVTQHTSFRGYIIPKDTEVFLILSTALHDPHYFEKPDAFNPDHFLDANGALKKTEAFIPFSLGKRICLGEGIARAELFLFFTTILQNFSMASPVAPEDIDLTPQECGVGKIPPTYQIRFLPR

Compound | IC50 [1] | IC50 [2] | inhibition [3] [%] | permeability [5] | Activity [7] | half-life [10] [min] | microsomal CLint [11] [µL/min/mg] | inhibition [12] | inhibition (INH) [13] | solubility [15] [µg/mL] | inhibition [17] | fraction unbound [18] | inhibition [19] [%] | IC50 [35] [µM] | other results
CN(C(=O)c1cc[nH]n1)c1ccccc1Cl | Not Active | Not Active |  |  |  |  |  |  |  |  |  |  |  |  | 
O=C(Nc1ccncc1)c1cc[nH]n1 |  | Not Active |  |  |  |  |  |  |  |  |  |  |  |  | 
O=C(Nc1ccc(F)cn1)c1cc[nH]n1 |  |  | < 50 | permeable | Non-toxic | 36 | 17 | inactive | Not Active | 3.4 (≈ 16.5 µM) | inactive | 0.071 | < 50 |  | inhibition at 10 µM [4]: 9%; IC50 [6]: Not Active; inhibition at 10 µM [8]: 26%; inhibition at 10 µM [9]: 6%; inhibition (INH) [14]: Not Active; inhibition at 10 µM [16]: 45%
O=C(Nc1ccc(Cl)cc1Cl)c1cn[nH]n1 |  |  | 42 | permeable | Non-toxic | > 100 | < 1 | 10% | Not Active | 83.6 (≈ 325 µM) | 4% | < 0.01 | < 50 |  | IC50 [20]: 21.6 µM; IC50 [21]: Not Active; inhibition at 10 µM [22]: 10%; IC50 [23]: Not Active; solubility [24]: 24.3 µg/mL (≈ 94.5 µM); IC50 ([6]; read-out: IC50): 58.1 µM; inhibition at 10 µM [25]: 93%; inhibition (INH) [26]: Not Active; IC50 [27]: > 100 µM; IC50 [28]: 1.4 µM; IC50 [29]: 24 µM; Imax [30]: 79%; IC50 [31]: 2.4 µM; IC50 [32]: 0.5 µM; IC50 [33]: 0.078 µM; solubility [34]: > 287 µg/mL
O=C(Nc1ccc(F)cc1)c1cc[nH]n1 |  |  |  |  |  |  |  |  |  |  |  |  |  | 0.27 | 
O=C(Nc1ccc(F)cc1Cl)c1cc([N+](=O)[O-])[nH]n1 | Not Active |  |  |  |  |  |  |  |  |  |  |  |  | 3.29 | 

Source: ChEMBL document CHEMBL3603736, “3-Substituted pyrazoles and 4-substituted triazoles as inhibitors of human 15-lipoxygenase-1” (Bioorg Med Chem Lett, 2015)
